Test results as given in patent US4642355A, “Proline derivatives” (Otsuka Pharmaceutical Factory, Inc., priority 1984, dated 1987).
Counter-ions that a name gives are not always drawn.

Tests used:
[1] = target: T1, angiotensin-converting enzyme (ACE) (Oryctolagus cuniculus, UniProt P12822); assay: Inhibitory activity against angiotensin-converting enzyme (ACE); assay type: biochemical, rabbit; settings: for IC50: enzyme from rabbit lung acetone powder, substrate hippurylhistidyl-leucine, 37° C.
T1 construct: enzyme solution prepared from rabbit lung acetone powder; tissue Sigma Chemical Co., Ltd., U.S.A; host or cells: rabbit lung (acetone powder)
T1 sequence (P12822 34-1310): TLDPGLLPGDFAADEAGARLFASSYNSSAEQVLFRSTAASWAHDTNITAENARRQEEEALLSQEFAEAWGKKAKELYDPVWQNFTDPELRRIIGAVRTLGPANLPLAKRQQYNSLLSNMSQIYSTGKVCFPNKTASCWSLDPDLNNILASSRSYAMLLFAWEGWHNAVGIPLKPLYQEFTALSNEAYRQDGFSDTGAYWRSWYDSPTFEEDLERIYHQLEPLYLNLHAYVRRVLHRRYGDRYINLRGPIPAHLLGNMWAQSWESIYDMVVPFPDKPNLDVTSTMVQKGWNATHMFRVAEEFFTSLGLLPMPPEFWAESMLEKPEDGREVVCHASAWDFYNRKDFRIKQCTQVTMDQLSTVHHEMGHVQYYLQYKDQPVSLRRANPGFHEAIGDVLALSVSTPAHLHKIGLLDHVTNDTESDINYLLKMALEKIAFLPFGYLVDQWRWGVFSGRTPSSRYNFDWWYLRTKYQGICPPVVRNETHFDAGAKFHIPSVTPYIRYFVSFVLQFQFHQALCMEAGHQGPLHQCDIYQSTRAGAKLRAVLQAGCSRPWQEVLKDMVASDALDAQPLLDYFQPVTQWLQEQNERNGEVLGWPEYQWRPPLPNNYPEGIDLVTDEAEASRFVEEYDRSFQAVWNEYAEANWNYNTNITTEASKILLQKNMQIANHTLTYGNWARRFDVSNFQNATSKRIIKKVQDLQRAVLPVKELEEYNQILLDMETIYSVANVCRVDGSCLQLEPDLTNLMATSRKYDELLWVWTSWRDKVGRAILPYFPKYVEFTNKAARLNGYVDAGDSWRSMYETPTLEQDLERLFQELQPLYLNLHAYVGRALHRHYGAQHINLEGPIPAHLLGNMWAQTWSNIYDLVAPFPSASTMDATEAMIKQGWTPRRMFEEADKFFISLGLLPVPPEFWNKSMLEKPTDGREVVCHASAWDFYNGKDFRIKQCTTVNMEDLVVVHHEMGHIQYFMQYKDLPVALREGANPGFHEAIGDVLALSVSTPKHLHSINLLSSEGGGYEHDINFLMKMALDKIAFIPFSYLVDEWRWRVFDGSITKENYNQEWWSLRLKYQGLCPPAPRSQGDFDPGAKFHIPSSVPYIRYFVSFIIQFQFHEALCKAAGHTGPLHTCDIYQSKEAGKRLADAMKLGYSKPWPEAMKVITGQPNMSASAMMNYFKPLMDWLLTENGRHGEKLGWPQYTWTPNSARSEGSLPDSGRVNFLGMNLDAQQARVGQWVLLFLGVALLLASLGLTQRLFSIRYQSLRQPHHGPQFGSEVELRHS
Description: Inhibitory activity against angiotensin-converting enzyme (ACE)
A 100 μl quantity of an enzyme solution prepared from rabbit lung acetone powder (product of Sigma Chemical Co., Ltd., U.S.A.) was mixed with 100 μl of a sample solution. The mixture was gently shaken at 37° C. for 10 minutes. To the reaction mixture was added 100 μl of a solution containing 6.99 mM of hippurylhistidyl-leucine (product of Peptide Institute, Inc., Japan) as a substrate. The mixture was reacted at 37° C. for 45 minutes while being shaken. The reaction was terminated by addition of 200 μl of a 1N sulfuric acid aqueous solution to the reaction mixture. Sodium chloride (saturation amount) and diethyl ether (2 ml) were added to the reaction mixture to extract the hippuric acid formed by the reaction. The resulting mixture was vigorously shaken for 15 minutes and centrifuged at 2000 rpm for 5 minutes. A 1.5 ml quantity of the ether layer was separated. After the solvent was distilled off, the residue was redissolved in 1.5 ml of distilled water and the absorbance at 228 nm was measured. A control was prepared by repeating the same procedure as above except that 100 μl of distilled water was used in place of the sample solution.
The inhibitory activity was calculated by deducting the absorbance value of the residue formed by addition of the sample solution from that of the control, and the resulting value was divided by the absorbance value of the control and multiplied by 100, thereby giving a percent inhibition. The inhibitory activity was expressed as IC50, i.e., the concentration of the sample solution in the reaction mixture in which concentration 50% inhibition is achieved.
The test compounds used in the experiment are shown below.

[2] = system: angiotensin-converting enzyme (ACE); assay: ACE inhibitory effect in normotensive rats (inhibition of pressor response to angiotensin I); assay type: in vivo; settings: 1 mg/kg directly to the stomach, male Wistar rats, urethane anesthesia, AI/AII ratio
Description: ACE Inhibitory effect in normotensive rats
Male Wistar rats weighing 200 to 400 g were anesthetized by the intraperitoneal injection of urethane (1.25 g/kg) and held in the supine position. The degree of inhibition of pressor response to angiotensin (A) I was determined using these rats. The blood pressure was measured with a femoral artery cannula connected to a transducer (product of Nihon Kohden Kabushiki Kaisha, Japan, Model MPU-0.5-290-0-III) and recorded in terms of a mean blood pressure value through a carrier amplifier (product of Nihon Kohden Kabushiki Kaisha, Japan, Model RP-5) on a multipurpose polygraph (product of Nihon Kohden Kabushiki Kaisha, Japan, Model RM-85). The rats were set in an experimental device and left therein for 1 hour to stabilize the hemodynamics. Then experiments were commenced. Since the magnitude of the pressor response to AI varies with time, the ratio of the responses to AI and AII (AI/AII ratio) was used to determine the magnitude of the pressor response to AI which ratio remained more constant. Through the cannulated femoral vein, AI (300 ng/kg) was administered first and AII (300 ng/kg) was given in 5 minutes to measure an AI/AII ratio. At 30 minutes after the first administration of AI, AI (300 ng/kg) was similarly administered and AII (300 ng/kg) was given in 5 minutes, followed by measuring an AI/AII ratio. This procedure was repeated until a constant value of AI/AII ratio was obtained. (The mean value of AI/AII ratios each resulting from the repeated procedure is represented as "C" in an equation to be shown later). At 10 minutes after the final administration of AII, an aqueous solution containing 1 mg/kg of each test compound was given directly to the stomach through a vinyl tube. At 10 minutes after administration of the test compound, AI (300 ng/kg) was given and at 5 minutes later, AII (300 ng/kg) was administered, followed by measurement of the AI/AII ratio (which was represented as "E" in the following equation). An ACE percent inhibition was calculated according to the equation indicated below. [formula]
Subsequently at each time of 60, 120 and 240 minutes after the administration of the test compound, AI (300 ng/kg) was given in the same manner as above and AII (300 ng/kg) was administered in 5 minutes, whereupon an ACE percent inhibition was calculated in the same way.
The results are shown below in Table 26 in which the test compounds listed are those prepared in the Examples indicated therein.

| ACE inhibitory activity higher than Test Compound No. 4 (fold) ([1]; compared with Test Compound No. 4) | IC50 [1] | SMILES | ACE Percent Inhibition, mean ± SD ([2]; 15 min. after administration) | ACE Percent Inhibition, mean ± SD ([2]; 60 min. after administration) | ACE Percent Inhibition, mean ± SD ([2]; 120 min. after administration) | ACE Percent Inhibition, mean ± SD ([2]; 240 min. after administration) |
| --- | --- | --- | --- | --- | --- | --- |
| about 122 times | 0.104 nM | CCCCCSC[C@H](NC(C)C(=O)N1CCC[C@H]1C(=O)O)C(=O)O (stereo partly drawn) [Test Compound 3, N--[(R)--1-carboxy-2-pentylthioethyl]-alanyl-(S)--proline (β-isomer)] | – | – | – | – |
| – | 12.7 nM | CSCC[C@H](NC(C)C(=O)N1CCC[C@H]1C(=O)O)C(=O)O (stereo partly drawn) [Test Compound 4, N--[(S)--1-carboxy-3-methylthiopropyl]-(R,S)--alanyl-(S)--proline, reference compound] | – | – | – | – |
| – | 5240 nM | COC(=O)[C@H](CCSC)NC(C)C(=O)N1CCC[C@H]1C(=O)O (stereo partly drawn) [Test Compound 5, N--[(S)--1-methoxycarbonyl-3-methylthiopropyl]-(R,S)--alanyl-(S)--proline hydrochloride, reference compound] | 1 ± 5% | 6 ± 4% | 7 ± 6% | 9 ± 1% |
